Assays:
[1] = tested on: TLR9-induced lethality; test: Survival of D-Gal pretreated mice after ODN 1668; assay type: in vivo, C57Bl/6J mice
Method: (§1) Systemic cytokine levels were measured in plasma samples obtained 1, 3, and 5 hours after intraperitoneal (i.p.) administration of 7.86 nmol (50 μg) of ODN 1668 or 67 nmol of Pam3C per mouse, using ELISA kits from Biolegend™ Inc. CPDP were dissolved in PBS and administered i.p. at the dose of 200 nmol per mouse 1 hour before administration of a TLR agonist. For survival experiments, mice were sensitized to TLR9 agonists by i.p. injection of 20 mg of D-Gal 30 minutes before administration of peptides or PBS. ODN 1668 was used at the doses of 3.93 or 7.86 nmol/mouse (25 or 50 μg/mouse) 1.5 hours after D-Gal. Animal survival was monitored for 50 hours. All agents were administered i.p. in 500 μL volume of PBS. Animals had free access to food and water during the observation period. All animal experiments were conducted in accordance with the national guidelines for the care and use of laboratory animals under a protocol that was approved by the UMB IACUC.
With the exception for LPS, administration of a purified TLR agonist is not lethal to mice. Mice, however, can be sensitized to TLR agonists by pretreatment with D-galactosamine (D-Gal). Survival of C57Bl/6J mice pretreated with D-galactosamine and challenged with different doses of ODN 1668 was tested. Mice were first administered with D-Gal intraperitoneally at the dose of 20 mg/mouse. Thirty minutes later mice were mock-treated with PBS or treated with a CPDP at the dose 200 nmol/mouse. ODN 1668 was administered 1 hour after peptide treatment at the dose of 3.93 or 7.86 nmol/mouse.

[2] = tested on: TLR9 signaling; test: Plasma cytokines after i.p. ODN 1668 in mice; assay type: in vivo, C57BL/6J mice
Method: as §1
To test the in vivo efficacy and specificity of 9R34-ΔN, C57BL/6J mice were mock-treated or treated i.p. with a single dose of inhibitory or control peptide (200 nmol/mouse) and challenged with TLR9 agonist ODN 1668 (7.86 nmol/mouse) or TLR2/1 agonist Pam3C (67 nmol/mouse) 1 hour later. Plasma concentrations of TNFα and IL-12-p40 were measured 1, 3, and 5 hours after the challenge. Both TLR agonists increased concentrations of TNFα and IL-12-p40 in 1 hour samples from below the limit of detection to about 1.2 and about 6 ng/mL in the case of ODN 1668, and to 0.12 ng/mL and 1 ng/mL after treatment with Pam3C.
Plasma TNFα and IL-12-p40 levels following intraperitioneal administration of ODN 1668 to C57Bl/6J mice in peptide-pretreated and control mice are shown in FIG. 14A and FIG. 14B. Data shown in these figures represent the means±SEM obtained in at least three independent experiments. The statistical significance of changes in cytokine concentrations was determined by a two-way ANOVA test; *p<0.001.

[3] = tested on: TLR2/1 signaling; test: Plasma cytokines after i.p. Pam3C in mice; assay type: in vivo, C57BL/6J mice; conditions: peptide 200 nmol/mouse i.p.; Pam3C 67 nmol/mouse
Method: as §1, with “Animals had free access to food and water during the observation period. All animal experiments were conducted in accordance with the national guidelines for the care and use of laboratory animals under a protocol that was approved by the UMB IACUC.” left out
To test the in vivo efficacy and specificity of 9R34-ΔN, C57BL/6J mice were mock-treated or treated i.p. with a single dose of inhibitory or control peptide (200 nmol/mouse) and challenged with TLR9 agonist ODN 1668 (7.86 nmol/mouse) or TLR2/1 agonist Pam3C (67 nmol/mouse) 1 hour later. Plasma concentrations of TNFα and IL-12-p40 were measured 1, 3, and 5 hours after the challenge. […]
Plasma TNFα and IL-12-p40 levels following intraperitioneal administration of ODN 1668 to C57Bl/6J mice in peptide-pretreated and control mice are shown in FIG. 14A and FIG. 14B. […] The statistical significance of changes in cytokine concentrations was determined by a two-way ANOVA test; *p<0.001.

[4] = tested on: TLR9 signaling; test: ODN 1668-induced cytokine secretion in BMDM supernatants (ELISA); assay type: cell-based, mouse; conditions: 5 hour supernatants, ODN 1668 1 μM
Method: Mouse TNFα and IL-12-p40 concentrations were measured in supernatants using ELISA kits from Biolegend™, Inc.
BMDMs were incubated in the presence of a decoy peptide for 30 minutes prior to stimulation with ODN 1668 (1 μM). The statistical significance of changes in cytokine levels was determined by the one-way ANOVA test; *p<0.01.

[5] = tested on: TLR1/2 signaling; test: TNFα mRNA in BMDM stimulated with Pam3C; assay type: cell-based, mouse; conditions: peptide 40 μM; P3C 0.33 μM; 1 h
Method: (§2) The cDNA obtained was amplified with gene-specific primers for mouse HPRT, TNFα, IL-10, IL-12-p40, or IL-6 and Fast SYBR Green™ master mix (Applied Biosystemsm) as previously described.
(§3) CPDPs 9R34 and 9R11 were examined for inhibition of TLR1/2, TLR4, and TLR7 signaling. BMDMs were stimulated with Pam3C, E. coli LPS, or R848 and TNFαmRNA was measured 1 hour after stimulation. Mouse BMDM were treated with 40 μM of the indicated peptides for 30 minutes prior to stimulation with ODN 1668 (1 μM), E. coli LPS (0.1 μg/mL), R848 (2.85 μM), or P3C (0.33 μM). R848 and P3C were used to specifically activate TLR7 and TLR2 signaling, respectively. TNFαmRNA expression was measured 1 h after ODN 1668 challenge and normalized to the expression of HPRT. See results in FIG. 8A, FIG. 8B, and FIG. 8C. […] The statistical significance of changes was determined by a one-way ANOVA test; *p<0.01.

[6] = tested on: TLR7 signaling; test: TNFα mRNA in BMDM stimulated with R848; assay type: cell-based, mouse; conditions: peptide 40 μM; R848 2.85 μM; 1 h
Method: as §2, §3

[7] = tested on: myDDosome; conditions: BMDM pretreated with CPDP; MyD88 IP, IRAK4 blot
Method: Four million BMDMs per well were plated in 6-well plates and treated with CPDP for 30 minutes prior to stimulation with ODN 1668 for 90 minutes. Cells were lysed in 600 p L of buffer containing 20 mM HEPES (pH 7.4), 150 mM NaCl, 10 mM NaF, 2 mM Na3VO4, 1 mM EDTA, 1 mM EGTA, 0.5% Triton X-100, 0.1 mM DTT, and protease inhibitor cocktail (Roche™). Cell extracts were incubated overnight with 1 μg of anti-mouse MyD88 antibody (AF3109) (R&D Systems™, followed by a 4-hour incubation with 20 μL protein G Sepharose beads (ThermoFisherm Scientific). The beads were then washed 3 times with 500 μL of lysis buffer and boiled in 60 μL of Laemmli sample buffer (Bio-Rad™). Cell extracts were electrophoresed on 10% acrylamide gel by SDS-PAGE and transferred to PVDF membrane (Bio-Rad™). Rabbit anti-MyD88 IgG was purchased from Cell Signaling™. Mouse anti-IRAK4 IgG was obtained from Abcam™. Alkaline phosphatase-conjugated secondary antibodies against mouse and rabbit IgG were purchased from Cell Signaling™. The stabilized substrate for alkaline phosphatase was from Promega™.
TLR stimulation causes formation of myDDosome, a signaling complex composed through interactions of IRAK and MyD88 death domains. To test if peptides inhibit myDDosome formation, MyD88 was immunoprecipitated from lysates of ODN-stimulated BMDM and the precipitates analyzed for IRAK4 presence. BMDM were lysed and lysates immunoprecipitated with anti-MyD88 Ab and immune complexes assessed with anti-IRAK4 Ab 3 hours after cell treatment with ODN 1668.

[8] = higher ODN1668 dose 50 μg/mouse, peptide 200 nmol/mouse i.p.

Sequence	protection against ODN-induced lethality (overall) ([1]; D-Gal pretreated mice)	protection of D-Gal pretreated mice (survival) ([1]; ODN 1668 lower dose 3.93 nmol/mouse, peptide 200 nmol/mouse i.p.)	mice rescued [1, 8]	protection of D-Gal pretreated mice (survival) [1, 8]	decrease of plasma IL-12-p40 peak ([2]; 3-hour samples, peptide 200 nmol/mouse i.p., ODN 1668 7.86 nmol/mouse)	1-hour plasma TNFα peak ([2]; peptide 200 nmol/mouse i.p. 1 hour before ODN 1668 7.86 nmol/mouse)	ODN 1668-induced plasma cytokine levels (TNFα, IL-12-p40) ([2]; peptide 200 nmol/mouse i.p., ODN 1668 7.86 nmol/mouse)	Pam3C-induced plasma cytokine levels (TNFα, IL-12-p40) [3]	secretion of IL-12-p40 ([4]; peptide 20 μM)	production/secretion of TNFα ([4]; peptide 40 μM)	secretion of IL-12-p40 ([4]; peptide 40 μM)	signaling induced by TLR1/2 agonist (TNFα mRNA) [5]	signaling induced by TLR7 agonist (TNFα mRNA) [6]	ODN 1668-induced myDDosome formation [7]
ALRLCLEERD [Peptide 9R34-ΔN]	protects mice from TLR9-induced lethality	full protection	more than 50%	less protective	approximately 25 fold	eliminated	selectively inhibited only the ODN 1668-induced cytokines	did not affect cytokine levels						
RSFWAQLGMALTRD (Synthetic peptide 9R11)									also effective	decreased the production of TNFα	reduced secretion	did not inhibit	did not inhibit	prevented ODN 1668-induced myDDosome formation
